For series [1], the target named is 5-hydroxytryptamine receptor 2A (Homo sapiens, UniProt P28223). The series is described as follows: biochemical. Format: cell-based, CHO-K1.
In series [2] the target is T1, Muscarinic acetylcholine receptor M1 (Homo sapiens) (UniProt P11229).
T1 sequence (whole entry): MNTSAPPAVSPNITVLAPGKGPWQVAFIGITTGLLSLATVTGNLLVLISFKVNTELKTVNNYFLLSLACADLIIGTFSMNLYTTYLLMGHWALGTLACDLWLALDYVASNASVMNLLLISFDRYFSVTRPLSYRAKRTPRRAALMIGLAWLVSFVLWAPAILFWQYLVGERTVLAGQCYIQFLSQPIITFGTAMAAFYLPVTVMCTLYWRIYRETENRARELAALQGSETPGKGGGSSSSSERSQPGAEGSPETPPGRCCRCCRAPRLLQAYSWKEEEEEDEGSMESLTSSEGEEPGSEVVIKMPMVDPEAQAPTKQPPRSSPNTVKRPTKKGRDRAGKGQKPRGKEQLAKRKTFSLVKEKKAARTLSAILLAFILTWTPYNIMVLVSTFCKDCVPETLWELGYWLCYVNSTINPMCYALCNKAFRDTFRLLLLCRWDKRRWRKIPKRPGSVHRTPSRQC
The experiment in a line: Displacement of [3H]pirenzepine from human recombinant M1 receptor expressed in CHO cells at 1 uM. It counts as cell-based. (In general: Displacement assays read how much labelled ligand stays bound in the presence of the test substance.)

Series [3] concerns the target 5-hydroxytryptamine receptor 6 (Homo sapiens, UniProt P50406). The series is described as follows: biochemical.
Series [4] concerns the target hERG (KCNH2) potassium channel (Homo sapiens, UniProt Q12809). The series is described as follows: in vitro. The settings on record: CHO cells expressing human cloned ERG.
Series [5] has as its target D(2) dopamine receptor (Homo sapiens, UniProt P14416). The series is described as follows: biochemical.
In series [6] the target is 5-hydroxytryptamine receptor 7 (Homo sapiens, UniProt P34969). The experiment in a line: biochemical. It counts as cell-based, CHO-K1.
Chain of 5-hydroxytryptamine receptor 7 (P34969 whole entry): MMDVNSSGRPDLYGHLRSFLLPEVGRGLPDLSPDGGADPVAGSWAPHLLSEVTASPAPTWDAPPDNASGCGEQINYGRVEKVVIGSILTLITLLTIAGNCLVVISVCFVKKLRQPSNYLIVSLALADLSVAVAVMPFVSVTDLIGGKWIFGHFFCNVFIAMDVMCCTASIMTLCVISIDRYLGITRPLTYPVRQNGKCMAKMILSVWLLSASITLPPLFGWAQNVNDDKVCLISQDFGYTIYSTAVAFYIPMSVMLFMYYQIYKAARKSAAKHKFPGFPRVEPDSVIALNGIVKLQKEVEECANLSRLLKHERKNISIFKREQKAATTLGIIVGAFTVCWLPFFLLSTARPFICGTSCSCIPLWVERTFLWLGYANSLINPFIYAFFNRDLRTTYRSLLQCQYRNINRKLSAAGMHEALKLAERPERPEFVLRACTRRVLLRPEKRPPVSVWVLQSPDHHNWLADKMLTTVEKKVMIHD

Bounds are passed on as bounds.

Chain of 5-hydroxytryptamine receptor 6 (P50406 whole entry): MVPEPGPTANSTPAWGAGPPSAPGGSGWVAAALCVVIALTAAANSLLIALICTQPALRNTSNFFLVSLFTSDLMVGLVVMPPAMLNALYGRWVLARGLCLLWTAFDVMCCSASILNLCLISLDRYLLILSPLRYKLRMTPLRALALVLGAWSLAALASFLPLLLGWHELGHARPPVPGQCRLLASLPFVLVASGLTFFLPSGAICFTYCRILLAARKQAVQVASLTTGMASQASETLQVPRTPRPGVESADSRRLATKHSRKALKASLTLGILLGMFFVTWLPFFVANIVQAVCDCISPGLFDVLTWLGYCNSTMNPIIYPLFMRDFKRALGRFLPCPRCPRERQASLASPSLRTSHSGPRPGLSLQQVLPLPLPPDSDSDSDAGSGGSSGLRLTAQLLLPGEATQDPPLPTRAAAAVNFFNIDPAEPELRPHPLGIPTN
Chain of D(2) dopamine receptor (P14416 whole entry): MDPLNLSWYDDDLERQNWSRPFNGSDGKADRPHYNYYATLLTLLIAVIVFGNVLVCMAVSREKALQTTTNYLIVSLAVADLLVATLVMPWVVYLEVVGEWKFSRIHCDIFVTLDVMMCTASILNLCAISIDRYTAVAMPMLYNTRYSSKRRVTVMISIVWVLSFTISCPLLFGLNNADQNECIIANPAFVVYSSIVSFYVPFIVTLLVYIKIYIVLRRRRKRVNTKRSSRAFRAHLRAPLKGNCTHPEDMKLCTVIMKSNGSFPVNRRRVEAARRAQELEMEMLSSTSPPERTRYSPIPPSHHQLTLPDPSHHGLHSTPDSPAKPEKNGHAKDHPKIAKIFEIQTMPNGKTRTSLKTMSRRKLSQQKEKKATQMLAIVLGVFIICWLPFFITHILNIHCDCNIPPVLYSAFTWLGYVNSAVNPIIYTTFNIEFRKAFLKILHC
Chain of hERG (KCNH2) potassium channel (Q12809 whole entry): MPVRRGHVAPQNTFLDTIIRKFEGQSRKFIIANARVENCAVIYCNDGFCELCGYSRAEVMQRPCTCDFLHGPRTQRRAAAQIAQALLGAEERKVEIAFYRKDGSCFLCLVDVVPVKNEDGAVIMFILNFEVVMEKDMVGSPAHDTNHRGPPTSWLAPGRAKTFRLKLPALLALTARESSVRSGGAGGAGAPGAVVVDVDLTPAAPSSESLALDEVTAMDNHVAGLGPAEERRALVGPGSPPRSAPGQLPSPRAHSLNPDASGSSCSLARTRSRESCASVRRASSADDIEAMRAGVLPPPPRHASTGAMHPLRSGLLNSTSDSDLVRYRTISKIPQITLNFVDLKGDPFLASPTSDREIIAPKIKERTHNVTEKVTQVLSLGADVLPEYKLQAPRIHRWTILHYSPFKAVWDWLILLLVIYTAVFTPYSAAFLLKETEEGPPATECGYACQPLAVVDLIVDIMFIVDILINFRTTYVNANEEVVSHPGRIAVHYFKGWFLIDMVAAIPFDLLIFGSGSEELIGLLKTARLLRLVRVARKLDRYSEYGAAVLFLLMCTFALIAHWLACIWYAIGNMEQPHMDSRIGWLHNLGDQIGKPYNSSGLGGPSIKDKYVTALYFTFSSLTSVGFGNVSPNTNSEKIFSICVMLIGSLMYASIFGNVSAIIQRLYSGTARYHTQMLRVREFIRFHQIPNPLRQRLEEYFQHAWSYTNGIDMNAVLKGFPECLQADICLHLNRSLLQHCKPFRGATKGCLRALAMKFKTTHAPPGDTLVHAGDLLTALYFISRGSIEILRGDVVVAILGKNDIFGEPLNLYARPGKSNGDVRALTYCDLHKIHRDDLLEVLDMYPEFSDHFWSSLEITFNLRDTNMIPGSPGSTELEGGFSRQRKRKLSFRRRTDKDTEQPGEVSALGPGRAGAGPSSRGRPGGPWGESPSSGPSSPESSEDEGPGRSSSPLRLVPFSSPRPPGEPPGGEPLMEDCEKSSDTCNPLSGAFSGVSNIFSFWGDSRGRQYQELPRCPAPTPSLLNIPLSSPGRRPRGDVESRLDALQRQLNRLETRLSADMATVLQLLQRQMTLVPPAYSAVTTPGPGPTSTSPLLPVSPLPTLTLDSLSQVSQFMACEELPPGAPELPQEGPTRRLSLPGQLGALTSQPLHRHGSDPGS
Chain of 5-hydroxytryptamine receptor 2A (P28223 whole entry): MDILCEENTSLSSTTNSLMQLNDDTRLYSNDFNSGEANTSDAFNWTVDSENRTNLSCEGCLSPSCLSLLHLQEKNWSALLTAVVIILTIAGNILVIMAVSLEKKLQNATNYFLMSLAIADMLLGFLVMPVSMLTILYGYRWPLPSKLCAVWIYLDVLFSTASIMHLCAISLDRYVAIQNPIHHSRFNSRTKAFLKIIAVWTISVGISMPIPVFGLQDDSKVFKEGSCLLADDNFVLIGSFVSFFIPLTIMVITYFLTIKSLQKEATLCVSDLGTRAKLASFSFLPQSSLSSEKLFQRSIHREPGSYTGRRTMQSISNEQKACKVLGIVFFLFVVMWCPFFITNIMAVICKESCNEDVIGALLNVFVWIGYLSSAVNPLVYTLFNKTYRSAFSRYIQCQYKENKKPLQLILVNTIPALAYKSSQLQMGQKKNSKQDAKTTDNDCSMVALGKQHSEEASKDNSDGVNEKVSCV

On to `O=S(=O)(NCCCN1CCN(c2nsc3ccccc23)CC1)c1cccc2scnc12`, for which the Ki in series [1] stood at 8.4 nM; in series [3], 27 nM; in series [5] it was 27 nM; in series [6] it was 2 nM. The inhibition in series [2] is 0%. Further, in series [4], the inhibition at 1 µM turned out to be 16%.
As to `O=S(=O)(NCCCN1CCN(c2noc3ccccc23)CC1)c1cccs1`, the Ki was 970 nM in series [1], above 10000 nM in series [3] and 94 nM in series [6]. In addition, the inhibition in series [2] worked out at 4%. In series [4], the inhibition at 1 µM stood at 18%.
With `Cc1c(S(=O)(=O)NCCCN2CCN(c3noc4ccccc34)CC2)sc2ccc(F)cc12`, the inhibition constant (Ki) was 1200 nM in series [1], above 10000 nM in series [3], above 10000 nM in series [5] and 200 nM in series [6]. In addition, the inhibition at 1 µM in series [4] came to 15%.
As for `Cc1cccc(S(=O)(=O)NCCN2CCC(c3noc4cc(F)ccc34)CC2)c1`, the Ki was 3.5 nM in series [1], 210 nM in series [3], 20 nM in series [5] and 1.1 nM in series [6]. Besides, in series [2], the inhibition was 0%. The inhibition at 1 µM in series [4] worked out at 42%.
With `O=S(=O)(NCCCCN1CCN(c2noc3ccccc23)CC1)c1ccc(Cl)c(Cl)c1`, the Ki stood at 10 nM in series [1], 29 nM in series [3], 57 nM in series [5] and 0.7 nM in series [6]. Also, the inhibition at 1 µM in series [4] is 24%.
`O=S(=O)(NCCCCN1CCN(c2nsc3ccccc23)CC1)c1ccc(F)c(Cl)c1`: the Ki was 15 nM in series [1], 53 nM in series [3], 39 nM in series [5] and 5.3 nM in series [6]. Further, the inhibition in series [2] is -10%. Moreover, the inhibition at 1 µM in series [4] worked out at 29%.
For the compound `Cc1cccc(S(=O)(=O)NCCN2CCN(c3nsc4ccccc34)CC2)c1`, the Ki in series [1] was found to be 8.8 nM; in series [3], 430 nM; in series [5], 43 nM; in series [6], 3.8 nM. In addition, in series [4], the inhibition at 1 µM was 4%.
Take `O=S(=O)(NCCCN1CCN(c2nsc3ccccc23)CC1)c1cccs1`: the Ki in series [1] is 9.1 nM; in series [3], 140 nM; in series [5], 56 nM; in series [6], 23 nM. Further, in series [4], the inhibition at 1 µM was 33%.
The corresponding values for `O=S(=O)(NCCCN1CCN(c2nsc3ccccc23)CC1)c1cc2ccccc2s1` are 11 nM, 63 nM, 48 nM, 13 nM and 12%.
As for `O=S(=O)(NCCCN1CCC(c2noc3cc(F)ccc23)CC1)c1ccc2ccccc2c1`, the Ki in series [1] came to 2.8 nM; in series [3], 32 nM; in series [5], 1 nM; in series [6], 0.8 nM. For the same compound, the inhibition in series [2] is -7%. In series [4], the inhibition at 1 µM is 63%.
For the compound `O=S(=O)(NCCCCN1CCC(c2noc3cc(F)ccc23)CC1)c1csc2ccccc12`, the Ki in series [1] stood at 5.7 nM; in series [3], 13 nM; in series [5] it was 22 nM; in series [6], 4.3 nM. Further, the inhibition in series [2] came to 5%. Moreover, in series [4], the inhibition at 1 µM worked out at 46%.
In the case of `O=S(=O)(NCCCCN1CCN(c2nsc3ccccc23)CC1)c1ccc2cc(Cl)ccc2c1`, the Ki in series [1] turned out to be 8.1 nM; in series [3], 61 nM; in series [5] it was 49 nM; in series [6], 33 nM. Moreover, the inhibition at 1 µM in series [4] was determined as 12%.
In the case of `O=S(=O)(NCCCN1CCC(c2noc3cc(F)ccc23)CC1)c1cc2ccccc2s1`, the inhibition constant Ki in series [1] stood at 0.9 nM; in series [3], 40 nM; in series [5], 11 nM; in series [6], 4.1 nM. The inhibition in series [2] is 13%. Besides, in series [4], the inhibition at 1 µM is 34%.
Consider `Cc1c(S(=O)(=O)NCCCCN2CCN(c3noc4ccccc34)CC2)sc2ccc(F)cc12`, for which the Ki in series [1] stood at 7.4 nM; in series [3] it was 17 nM; in series [5], 46 nM; in series [6], 2.6 nM. Further, the inhibition in series [2] is -4%. Moreover, the inhibition at 1 µM in series [4] is 29%.
Take `O=S(=O)(NCCCN1CCN(c2noc3ccccc23)CC1)c1ccc2ccccc2c1`: the Ki in series [1] is 110 nM; in series [3], 1600 nM; in series [5] it was 7200 nM; in series [6], 120 nM. Moreover, the inhibition in series [2] was -5%. The inhibition at 1 µM in series [4] turned out to be 29%.
Turning to `Cc1c(S(=O)(=O)NCCCN2CCN(c3nsc4ccccc34)CC2)sc2ccc(F)cc12`, the Ki worked out at 14 nM in series [1], 120 nM in series [3], 8.3 nM in series [5] and 25 nM in series [6]. In series [2], the inhibition was -8%. In series [4], the inhibition at 1 µM was 3%.
On to `O=S(=O)(NCCN1CCN(c2nsc3ccccc23)CC1)c1ccc2ccccc2c1`, for which the inhibitory constant (Ki) in series [1] is 0.9 nM; in series [3], 680 nM; in series [5] it was 18 nM; in series [6], 1.5 nM. Besides, in series [4], the inhibition at 1 µM was 0%.
As to `O=S(=O)(NCCCN1CCN(c2nsc3ccccc23)CC1)c1cnc2ccccn12`, the Ki came out at 12 nM in series [1], 84 nM in series [3], 26 nM in series [5] and 6.3 nM in series [6]. For the same compound, the inhibition in series [2] turned out to be 2%. The inhibition at 1 µM in series [4] was 6%.
As for `O=S(=O)(NCCCN1CCN(c2noc3ccccc23)CC1)c1ccc(OC(F)(F)F)cc1`, the inhibition constant (Ki) in series [1] stood at 950 nM; in series [3], 2200 nM; in series [5], 63 nM; in series [6], 380 nM. Further, the inhibition in series [2] is 3%. Also, the inhibition at 1 µM in series [4] is 10%.
As to `O=S(=O)(NCCCN1CCN(c2nsc3ccccc23)CC1)c1ccc(OC(F)(F)F)cc1`, the Ki worked out at 9.5 nM in series [1], 56 nM in series [3], 27 nM in series [5] and 29 nM in series [6]. Further, the inhibition at 1 µM in series [4] was found to be 50%.
For `O=S(=O)(NCCCN1CCC(c2noc3cc(F)ccc23)CC1)c1ccc(OC(F)(F)F)cc1`, the inhibition constant Ki in series [1] turned out to be 3.8 nM; in series [3], 35 nM; in series [5], 33 nM; in series [6], 8.8 nM. Moreover, the inhibition at 1 µM in series [4] came to 87%.
For `O=S(=O)(NCCCN1CCN(c2nsc3ccccc23)CC1)c1ccc(F)c(Cl)c1`, in that order: 14 nM, 5.1 nM, 37 nM, 9.5 nM and 36%.
For `O=S(=O)(NCCCCN1CCN(c2noc3ccccc23)CC1)c1cccc2scnc12`, in that order: 6100 nM, above 10000 nM, 170 nM, 57 nM and 26%.
As for `O=S(=O)(NCCCCN1CCN(c2noc3ccccc23)CC1)c1ccc(OC(F)(F)F)cc1`, the inhibitory constant (Ki) turned out to be 210 nM in series [1], 4800 nM in series [3], 400 nM in series [5] and 270 nM in series [6]. Moreover, in series [4], the inhibition at 1 µM is 24%.
Take `O=S(=O)(NCCCN1CCC(c2noc3cc(F)ccc23)CC1)c1cccs1`: the inhibition constant (Ki) was 5.1 nM in series [1], 66 nM in series [3], 8.7 nM in series [5] and 0.9 nM in series [6]. For the same compound, in series [4], the inhibition at 1 µM was determined as 53%.
For `Cc1cccc(S(=O)(=O)NCCCN2CCN(c3nsc4ccccc34)CC2)c1`, in that order: 1.3 nM, 22 nM, 13 nM, 1.7 nM and 14%.
For `Cc1cccc(S(=O)(=O)NCCCN2CCN(c3noc4ccccc34)CC2)c1`, in that order: 4200 nM, 1500 nM, 2000 nM, 10 nM and 8%.
As for `O=S(=O)(NCCCN1CCN(c2nsc3ccccc23)CC1)c1cc2ccc(Cl)cc2s1`, the Ki in series [1] is 9.5 nM; in series [3], 110 nM; in series [6], 54 nM. The inhibition in series [2] was -6%. For the same compound, in series [4], the inhibition at 1 µM amounted to 0%.
Consider `O=S(=O)(NCCCCN1CCN(c2noc3ccccc23)CC1)c1ccc2cc(Cl)ccc2c1`, for which the Ki in series [1] came to 7.7 nM; in series [3], 18 nM; in series [5], 51 nM; in series [6], 6.7 nM. Besides, the inhibition at 1 µM in series [4] came out at 9%.
As for `O=S(=O)(NCCCN1CCN(c2nsc3ccccc23)CC1)c1ccc(Cl)c(Cl)c1`, the Ki was 25 nM in series [1], 15 nM in series [3], 7.8 nM in series [5] and 20 nM in series [6]. For the same compound, the inhibition at 1 µM in series [4] was 21%.
The corresponding values for `O=S(=O)(NCCCCN1CCC(c2noc3cc(F)ccc23)CC1)c1cccc2scnc12` are 8.5 nM, 70 nM, 25 nM, 13 nM and 69%.
As for `O=S(=O)(NCCCCN1CCN(c2nsc3ccccc23)CC1)c1ccc(OC(F)(F)F)cc1`, the Ki in series [1] is 2.2 nM; in series [3], 47 nM; in series [5], 48 nM; in series [6], 19 nM. In addition, the inhibition at 1 µM in series [4] is 20%.

Usually Ki stands for a dissociation constant, usually derived from enzyme kinetics or from competition with a known ligand. High values mean a looser hold on the target, low ones a stronger hold on the target. A word on the inhibition: it is the change of the read-out against control, counted positive when it falls.

The record behind these values is ChEMBL document CHEMBL3286108, “Novel arylsulfonamide derivatives with 5-HT₆/5-HT₇ receptor antagonism targeting behavioral and psychological symptoms of dementia” (J Med Chem, 2014).
